Legend:
[1] = system: porcine pancreatic lipase; experiment: In vitro hydrolysis of prodrugs by incubation with porcine pancreatic lipase; assay type: in vitro ADME; details: 37° C.; for hydrolysis of prodrug to its monoglyceride form: simulated intestinal micellar solution, 0-180 min
Experimental: To provide for higher throughput of experiments, unless otherwise stated, in vitro hydrolysis of compounds will generally be performed via incubation with porcine pancreatic lipase. This provides a more reproducible source of pancreatic enzymes, facilitates enhanced experimental throughput, and is also a greater challenge than collected rat enzymes (since enzyme activity in rat intestinal fluid is low). Briefly, pancreatic lipase solution was prepared prior to the hydrolysis experiment by dispersion of 1 g porcine pancreatin in 5 ml of lipolysis buffer and 16.9 μL of 0.5 M NaOH. The suspension was mixed well and centrifuged at 3500 rpm for 15 minutes at 5° C. to provide a supernatant. An amount of 1000 mL of lipolysis buffer was prepared with 0.474 g of tris-maleate (2 mM), 0.206 g of CaCl2.H2O (1.4 mM) and 8.775 g of NaCl (150 mM) adjusted with NaOH to pH 6.5. To assess the potential for prodrug hydrolysis in the intestine, 20 μL of prodrug solution (1 mg/mL dissolved in acetonitrile), 900 μL of simulated intestinal micellar solution [prepared with 0.783 g of NaTDC (3 mM) and 0.291 g of phosphatidylcholine (0.75 mM) in 500 mL lipolysis buffer] and 100 μL of enzyme solution were incubated at 37° C. 20 μL samples of the incubation solution were taken at 0, 5, 10, 15, 30, 60, 90, 120 and 180 minutes post incubation and added to 180 μL of MeCN to stop lipolysis. The mixture was vortexed and centrifuged at 5000 rpm for 5 minutes to precipitate proteins prior to analysis. The supernatant was analyzed by HPLC-MS for residual compound concentrations, and the potential products of compound hydrolysis analyzed.
The data for prodrug compounds I-1 and I-2 are shown in FIG. 8 and FIG. 9, respectively. […] The monoglycerides were then converted at different rates to an acid intermediate and/or free parent ALLO. An acid intermediate was not observed for prodrug I-2. The acid intermediate of prodrug I-1 is believed to have the following structure, based on HPLC-MS data: […]

[2] = system: rat plasma supplemented with lipoprotein lipase (LPL); experiment: In vitro hydrolysis of prodrugs in rat plasma supplemented with lipoprotein lipase; assay type: in vitro ADME; details: 37° C.; for hydrolysis of prodrug to its monoglyceride form: 0-180 min
Experimental: (§1) In order to probe the release of free drug from TG prodrugs in the systemic circulation, prodrugs are incubated with plasma (rat, mouse, dog, pig or human) supplemented with lipoprotein lipase (LPL, 200 IU/ml). LPL is a key enzyme required for the hydrolysis of lipoprotein associated TG in the systemic circulation and is therefore expected to be a key contributor to lipolysis of the re-esterified drug-TG construct in plasma, largely via liberation of fatty acids in the sn-1 and the sn-3 position of the TG-mimetic, prior to drug release from the 2′ position via esterase hydrolysis. […] is tethered to the luminal surface of vascular endothelial cells under physiological conditions. In the current in vitro studies, plasma is therefore supplemented with LPL to better reflect the in vivo situation.
(§2) To start hydrolysis, 10 μl of LPL solution (10,000 IU/ml) was added to a mixture of 10 μl of prodrug solution (1 mg/ml dissolved in acetonitrile) and 500 μl of blank plasma. The mixture was incubated at 37° C. Samples (20 μl) of the incubation solution were taken at 0, 5, 15, 30, 60, 90, 120 and 180 minutes post-incubation and added to 180 μl of MeCN to stop lipolysis. The mixture was vortexed and centrifuged at 4500×g for 5 minutes to precipitate proteins prior to analysis. The supernatant was analyzed by HPLC-MS/MS for the potential products (MG form, acid form, and free drug) of prodrug hydrolysis.
(§3) The in vitro hydrolysis profile of selected prodrug compounds was determined in rat, dog, and/or human plasma supplemented with LPL. The data for prodrug compound I-1 in rat and dog plasma are shown in FIG. 10 and FIG. 11, respectively. The data for prodrug compound I-2 in rat, dog, and human plasma are shown in FIG. 12, FIG. 13, and FIG. 14, respectively. […] The monoglycerides were then converted at different rates to an acid intermediate and/or free parent ALLO. An acid intermediate was not observed for prodrug I-2. The acid intermediate of prodrug I-1 is believed to have the following structure, based on HPLC-MS data: […]

[3] = system: dog plasma supplemented with lipoprotein lipase (LPL); experiment: In vitro hydrolysis of prodrugs in dog plasma supplemented with lipoprotein lipase; assay type: in vitro ADME; details: 37° C.; for hydrolysis of prodrug to its monoglyceride form: 0-180 min
Experimental: as §1, §2, §3

[4] = system: human plasma supplemented with lipoprotein lipase (LPL); experiment: In vitro hydrolysis of prodrugs in human plasma supplemented with lipoprotein lipase; assay type: in vitro ADME; details: 37° C.
Experimental: as §1
To start hydrolysis, 10 μl of LPL solution (10,000 IU/ml) was added to a mixture of 10 μl of prodrug solution (1 mg/ml dissolved in acetonitrile) and 500 μl of blank plasma. The mixture was incubated at 37° C. […] The supernatant was analyzed by HPLC-MS/MS for the potential products (MG form, acid form, and free drug) of prodrug hydrolysis.
The in vitro hydrolysis profile of selected prodrug compounds was determined in rat, dog, and/or human plasma supplemented with LPL. […]

[5] = Rat pharmacokinetic studies: plasma allopregnanolone after oral prodrug or ALLO, and after IV ALLO; assay type: in vivo, male Sprague-Dawley rats; details: plasma Allo after oral gavage to rats; doses normalized to 2 mg/kg equivalent ALLO; mean±SD (n≥3) or mean±range (n=2)
Experimental: In order to assess the oral bioavailability of test compounds, pharmacokinetic studies were conducted using the following procedure. The day before drug administration, male Sprague-Dawley rats (240-320 g) were anesthetized and the carotid artery was cannulated. The rats were then allowed to regain consciousness and fasted overnight prior to the commencement of experiments with free access to water. The next morning, formulations containing parent compounds or prodrugs were administered via oral gavage or via the jugular vein cannula, and blood samples were collected from the carotid artery cannula from −5 min up to 24 h post dosing. During the blood sample collection period the rats had free access to water but remained fasted for a further 8 h following drug administration. In these allopregnanolone (ALLO) related studies, the blood samples were centrifuged at 4500×g for 5 min to separate plasma. Plasma samples were stored at −20° C. prior to assay by HPLC-MS-MS. The whole blood or plasma samples were assayed for free drug (i.e. non-glyceride associated drug) and were not hydrolized prior to assay (as was the case with the lymph samples).
FIG. 3 illustrates dose-normalized ALLO plasma concentrations following oral gavage of ALLO related formulations to conscious, carotid artery-cannulated male SD rats. The ALLO oral formulation for each rat contained 2 mg of parent ALLO (i.e., non-prodrug allopregnanolone) suspended in 2 ml of suspending vehicle (0.50 sodium carboxymethyl cellulose, 0.4% Tween 80 and 0.9% NaCl in water). Prodrug formulations for each rat contained 2 mg of the ALLO prodrug dispersed in 40 mg oleic acid, 25 mg Tween 80 and 2 ml PBS. Doses were normalized to a 2 mg/kg equivalent dose of ALLO. Data are shown as mean±SD n≥3 or mean±range when n=2. […] Doses are normalized to a 2 mg/kg equivalent ALLO dose and data are presented as mean±SD when n≥3 or mean±range when n=2.
Also shown (bottom) is the calculated area under the curve (AUC) over 0-24 h for each of the test compounds as a fraction of the IV-administered allpregnanolone control.

[6] = background statement; cited from earlier work

SMILES | hydrolysis of prodrug to its monoglyceride form [1] | hydrolysis of prodrug to its monoglyceride form [2] | hydrolysis of prodrug to its monoglyceride form [3] | Cmax [5] | also measured
CCCCCCCCCCCCCCCC(=O)OCC(COC(=O)CCCCCCCCCCCCCCC)OC(=O)CC(C)CC(=O)OC(C)OC(=O)O[C@@H]1CC[C@@]2(C)[C@@H](CC[C@@H]3[C@@H]2CC[C@]2(C)[C@@H](C(C)=O)CC[C@@H]32)C1 (stereo partly drawn) [Compound I-2, 1-(1-(((((3R,5S,8R,9S,10S,13S,14S,17S)-17-acetyl-10,13-dimethylhexadecahydro-1H-cyclopenta[a]phenanthren-3-yl)oxy)carbonyl)oxy)ethyl) 5-(1,3-bis(palmitoyloxy)propan-2-yl) 3-methylpentanedioate] | rapidly converted to the prodrug's monoglyceride form | rapidly converted to the prodrug's monoglyceride form | rapidly converted to the prodrug's monoglyceride form | – | acid intermediate of hydrolysis ([1]; HPLC-MS): not observed; acid intermediate of hydrolysis [2]: not observed; acid intermediate of hydrolysis [3]: not observed; acid intermediate of hydrolysis [4]: not observed; hydrolysis of prodrug to its monoglyceride form ([4]; 0-180 min): rapidly converted to the prodrug's monoglyceride form
CCCCCCCCCCCCCCCC(=O)OCC(COC(=O)CCCCCCCCCCCCCCC)OC(=O)C(C)(C)CCCCCCCC(=O)O[C@@H]1CC[C@@]2(C)[C@@H](CC[C@@H]3[C@@H]2CC[C@]2(C)[C@@H](C(C)=O)CC[C@@H]32)C1 [Compound I-12, 10-((3R,5S,8R,9S,10S,13S,14S,17S)-17-acetyl-10,13-dimethylhexadecahydro-1H-cyclopenta[a]phenanthren-3-yl) 1-(1,3-bis(palmitoyloxy)propan-2-yl) 2,2-dimethyldecanedioate] | – | – | – | below LOQ) | –
CCCCCCCCCCCCCCCC(=O)OCC(COC(=O)CCCCCCCCCCCCCCC)OC(=O)CCCCCCCCC(=O)O[C@@H]1CC[C@@]2(C)[C@@H](CC[C@@H]3[C@@H]2CC[C@]2(C)[C@@H](C(C)=O)CC[C@@H]32)C1 [Compound I-1, 1-((3R,5S,8R,9S,10S,13S,14S,17S)-17-acetyl-10,13-dimethylhexadecahydro-1H-cyclopenta[a]phenanthren-3-yl) 10-(1,3-bis(palmitoyloxy)propan-2-yl) decanedioate] | rapidly converted to the prodrug's monoglyceride form | rapidly converted to the prodrug's monoglyceride form | rapidly converted to the prodrug's monoglyceride form | – | –
CCCCCCCCCCCCCCCC(=O)OCC(COC(=O)CCCCCCCCCCCCCCC)OC(=O)C(C)(C)CCCCCCCCCC(=O)O[C@@H]1CC[C@@]2(C)[C@@H](CC[C@@H]3[C@@H]2CC[C@]2(C)[C@@H](C(C)=O)CC[C@@H]32)C1 [Compound I-13, 12-((3R,5S,8R,9S,10S,13S,14S,17S)-17-acetyl-10,13-dimethylhexadecahydro-1H-cyclopenta[a]phenanthren-3-yl) 1-(1,3-bis(palmitoyloxy)propan-2-yl) 2,2-dimethyldodecanedioate] | – | – | – | below LOQ) | –
CCCCCCCCCCC(=O)O[C@H]1CC[C@H]2[C@@H]3CCC4=CC(=O)CC[C@]4(C)[C@H]3CC[C@]12C [testosterone undecanoate] | – | – | – | – | bioavailability of testosterone after oral administration of the undecanoate ester [6]: < 5%

Reference: patent US20210300962A1, “LIPID PRODRUGS OF PREGNANE NEU[…] USES THEREOF” (PureTech LYT, Inc., priority 2018, published 2021)
